Results taken from patent publication US8143226B2, “Tyrosine kinase receptor antagonists and methods of treatment for breast cancer” (The Regents of the University of California, priority 2005, dated 2012).
Where two headings read alike, the source gives them in different places.

Legend:
[1] = target: T1, IGF-1R kinase domain peptide (Homo sapiens, UniProt P08069); assay: IGF-1R kinase domain peptide autophosphorylation (western blot); type: biochemical; settings: peptide incubated with NDGA prior to 20 μM ATP
T1 construct: purchased Upstate, USA (Charlottesville, Va.)
Procedure: ATP was then added at a final concentration of 20 μM. Autophosphorylation of peptide was allowed to occur for 20 min at 22° C. The reaction was stopped by the addition of SDS-reducing buffer, and the samples were run on SDS-PAGE. Following transfer to nitrocellulose membrane, peptide autophosphorylation was determined by western blotting employing an antibody against phosphotyrosine diluted to 0.5 μg/ml in phosphate buffered saline (PBS) containing 3% milk. The membrane was incubated with the antibody overnight at 4 C. Next, blots were washed 3 times with PBS, then incubated with HRP conjugated sheep anti-rabbit IgG (Amersham, Piscataway, N.J.) diluted 1:50,000 in PBS with 3% milk for 90 minutes at room temperature. After washing, blots were incubated with Super-Signal (Pierce, Rockford, Ill.), and exposed to film. Values were determined by scanning densitometry.

MCNeuA tumor cells = assay: Growth of MCNeuA tumors in neuTg mice; type: in vivo, mouse; settings: combined oral 100 mg/kg and i.p. 37.5 mg/kg groups, from 21 days post-implantation
From the text: All animal studies complied with protocols approved by of the Institutional Animal Care and Use Committee of the University of California, San Francisco. Our syngeneic model studies utilized the FVB/N-TgN(MMTVneu)202 mouse strain developed by Muller and colleagues (Guy CT, Webster MA, Schaller M, Parsons TJ, Cardiff RD, Muller WJ: Expression of the neu protooncogene in the mammary epithelium of transgenic mice induces metastatic disease. Proc Natl Acad Sci USA 89:10578-10582, 1992). This strain, denoted hereafter as neuTg, expresses the wild-type rat neu proto-oncogene (a homologue of human HER2) under the control of the mouse mammary tumor virus (MMTV) long terminal repeat (LTR) on an FVB mouse background. The MCNeuA mammary carcinoma cell line employed in these studies was derived from a spontaneously arising tumor in a neuTg female mouse (Campbell MJ, Wollish WS, Lobo […] LJ: Epithelial and fibroblast cell lines derived from a spontaneous mammary carcinoma in a MMTV/neu transgenic mouse. In Vitro Cell Dev Biol Anim 38:326-333, 2002). These cells are tumorigenic when transplanted back into neuTg mice. […] This solution was kept warm at 37° C. until given to mice by i.p. injection. […] Tumor growth was measured at the time of drug delivery on alternate treatment days with calipers and volume calculated using the equation: (length×width^2)*(π/6). […]

IGF-1R [2] = target: T2, IGF-1R (Mus musculus, UniProt Q60751); assay: IGF-1R autophosphorylation in excised MCNeuA tumors (ELISA); type: in vivo; settings: 37.5 mg/kg i.p. three times a week, 16 hours after final dose, vs vehicle
T2 construct: from tissue; host or cells: MCNeuA tumours excised from neuTg mice
Procedure: Tumors were homogenized in 50 mM HEPES, pH 7.6, 150 mM NaCl, 1 mM PMSF, 2 μM leupeptin, 2 μM Pepstatin A, and 2 mM Na3VO4, and solubilized by the addition of 1% Triton x-100. Soluble lysates were prepared as described for cell culture studies. Tyrosine phosphorylation of IGF-1R was determined by ELISA as described for MCF-7 cells. Phosphorylation of HER2/neu was determined by western blot employing the phospho-specific antibody as in the cell culture studies. The degree of phosphorylation for each receptor was normalized to total receptor protein content in the tumor samples as determined by western blotting with antibodies against the human IGF-1R and the rodent HER2/neu.

[3] = tested on: SH-SY5Y, SHEP and Kelly neuroblastoma cells; assay: CyQUANT assay for neuroblastoma cell growth; type: cell-based, human
Procedure: CyQUANT assay for cell growth. Cells were plated on four 96-well tissue culture plates, in DMEM/10% calf serum at a density of 8000 cells/well and incubated for 24 h. In one set of experiments, the medium was switched to serum free DMEM supplemented with 1% bovine serum albumin (to provide osmotic support). IGF-I (10 nM) was added to some samples on a daily basis for up to 3 days. […] The media from one plate was immediately removed, and the plate was frozen at −80° C. This plate served as the baseline for the experiment. Single plates were frozen at 24, 48, and 72 h following addition of drugs. DNA content of each well was quantified by staining with CyQUANT according to the manufacturer's instructions and measuring CyQUANT […] with a fluorimeter. Each condition was run in triplicate, and the experiment was repeated three times.

caspase-3 = assay: Caspase-3 cleavage in SH-SY5Y cells; type: cell-based, human; settings: SH-SY5Y cells in serum, 6 h
From the text: Detection of Caspase-3 cleavage. […] Lysates were collected as described above, and the 14/17 kD cleavage fragments of caspase-3 were detected via SDS-PAGE followed by immunoblotting with anti-cleaved caspase-3 antibody.

MCF-7/HER2-18 cells = assay: Growth of MCF-7/HER2-18 cells with RTK inhibitors, 6 days (CyQuant); type: cell-based, human; settings: read-out: one half maximal effect on growth
Procedure: MCF-7/neo or MCF-7/HER2-18 cells were plated in 96 well plates (4×10^3 cells/well) in 100 μl/well of DMEM-10 medium. […] Media with inhibitors was refreshed on day 3 and the cultures were harvested on day 6. The plates were inverted onto paper towels with gentle blotting to remove growth medium without disrupting adherent cells. Each plate was kept at −80° C. until assayed for cell growth. After thawing the plate at room temperature, 200 μl of CyQuant GR solution was added to each well and the plates were incubated in the dark for five minutes. Fluorescence was measured with a SpectraMax Gemini XS fluorescence microplate reader (Molecular Devices) with 480-nm excitation and 520-nm emission.

[4] = pure NDGA; cited from earlier work
EGF receptor = EGF receptor (Homo sapiens, UniProt P00533); settings: Seufferlein et al. 2002; cited from earlier work
IGF-1R [5] = target: IGF-1R (Homo sapiens, UniProt P08069); assay: IGF-1R phosphorylation ELISA in MCF-7/HER2-18 cells; type: cell-based; parameters: endogenous in cells; host or cells: MCF-7/HER2-18; settings: 3 nM IGF-I 10 min
IGF-1R (Homo sapiens, UniProt P08069), sequence (P08069 31-1367): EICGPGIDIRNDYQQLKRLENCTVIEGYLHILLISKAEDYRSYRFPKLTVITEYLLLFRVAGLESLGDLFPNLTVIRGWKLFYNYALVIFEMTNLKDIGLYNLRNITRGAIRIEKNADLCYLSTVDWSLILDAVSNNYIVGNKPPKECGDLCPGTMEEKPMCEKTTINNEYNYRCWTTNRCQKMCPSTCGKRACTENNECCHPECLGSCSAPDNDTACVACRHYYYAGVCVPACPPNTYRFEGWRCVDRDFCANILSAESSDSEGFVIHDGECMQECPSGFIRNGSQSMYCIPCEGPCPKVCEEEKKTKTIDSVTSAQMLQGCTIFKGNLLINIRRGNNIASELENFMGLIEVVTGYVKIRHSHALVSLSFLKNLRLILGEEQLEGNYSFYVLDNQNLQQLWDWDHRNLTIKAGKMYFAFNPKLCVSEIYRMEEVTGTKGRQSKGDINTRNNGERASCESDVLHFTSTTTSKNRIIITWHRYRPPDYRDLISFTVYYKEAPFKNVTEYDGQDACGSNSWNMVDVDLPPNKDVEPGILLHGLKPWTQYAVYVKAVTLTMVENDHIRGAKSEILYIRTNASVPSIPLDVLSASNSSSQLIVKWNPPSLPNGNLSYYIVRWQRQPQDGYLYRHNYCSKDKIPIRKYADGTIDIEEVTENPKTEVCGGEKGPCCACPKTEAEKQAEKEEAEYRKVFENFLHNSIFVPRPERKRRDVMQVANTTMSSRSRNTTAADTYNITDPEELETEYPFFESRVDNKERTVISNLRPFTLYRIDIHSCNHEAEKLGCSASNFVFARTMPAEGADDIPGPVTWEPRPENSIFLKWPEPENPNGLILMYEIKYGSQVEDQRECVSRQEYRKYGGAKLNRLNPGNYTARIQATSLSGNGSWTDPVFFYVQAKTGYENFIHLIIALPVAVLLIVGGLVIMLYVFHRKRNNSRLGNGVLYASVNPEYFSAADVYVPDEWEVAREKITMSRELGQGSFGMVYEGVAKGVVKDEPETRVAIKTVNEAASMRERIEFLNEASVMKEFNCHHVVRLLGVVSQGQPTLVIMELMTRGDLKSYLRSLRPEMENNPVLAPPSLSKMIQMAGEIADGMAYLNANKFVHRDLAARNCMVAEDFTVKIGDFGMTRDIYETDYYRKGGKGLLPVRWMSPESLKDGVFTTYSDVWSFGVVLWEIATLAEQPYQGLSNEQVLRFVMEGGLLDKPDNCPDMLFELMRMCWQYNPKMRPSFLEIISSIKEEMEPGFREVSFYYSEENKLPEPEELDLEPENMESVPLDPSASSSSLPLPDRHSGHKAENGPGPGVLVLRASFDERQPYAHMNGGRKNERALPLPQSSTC
Procedure: RTK inhibitors were dissolved in DMSO and diluted with culture medium before being added to cells for 1.5 hour at 37° C. The final concentration of DMSO during the incubation was 0.3% . For some studies, cells were also stimulated with 3 nM IGF-I for 10 minutes at 37° C. Reactions were terminated by rapidly aspirating medium and washing cells three times with ice cold PBS. Cells were harvested and solubilized in 50 mM HEPES, 150 mM NaCl, 1% Triton X-100, 1 mM PMSF, and 2 mM vanadate for 1 hour at 4° C. Protein concentrations were determined by BCA assay (Pierce, Rockford, Ill.). […] Briefly, 10 μg lysate protein were added to triplicate wells in a 96-well plate coated with monoclonal antibody to the IGF-IR (IR3; 2 μg/ml), and incubated for 18 hours at 4° C. Plates were washed five times and then HRP-conjugated anti-phosphotyrosine antibody (0.3 μg/ml), diluted in Solution B (50 mM HEPES, pH 7.6, 150 mM NaCl, 0.05% Tween-20, 1 mM PMSF, 2 mM vanadate and 1 mg/ml bacitracin), was added for two hours at 22° C. Plates were washed five times prior to color development with TMB substrate, which was terminated with 1.0 M H3PO4. Values for receptor phosphorylation were determined by measuring absorbance at 450 nm.

T1 sequence (P08069 989-1367): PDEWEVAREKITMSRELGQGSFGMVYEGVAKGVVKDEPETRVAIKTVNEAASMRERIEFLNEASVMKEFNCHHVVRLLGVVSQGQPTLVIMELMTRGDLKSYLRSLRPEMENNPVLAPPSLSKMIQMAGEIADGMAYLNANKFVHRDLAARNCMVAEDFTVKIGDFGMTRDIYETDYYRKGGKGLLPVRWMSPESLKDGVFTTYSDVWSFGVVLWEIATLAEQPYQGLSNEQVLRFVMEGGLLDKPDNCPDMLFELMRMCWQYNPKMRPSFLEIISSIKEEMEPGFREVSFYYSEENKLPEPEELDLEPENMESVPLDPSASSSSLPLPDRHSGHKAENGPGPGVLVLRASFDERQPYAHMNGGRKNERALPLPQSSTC
EGF receptor, sequence (P00533 25-1210): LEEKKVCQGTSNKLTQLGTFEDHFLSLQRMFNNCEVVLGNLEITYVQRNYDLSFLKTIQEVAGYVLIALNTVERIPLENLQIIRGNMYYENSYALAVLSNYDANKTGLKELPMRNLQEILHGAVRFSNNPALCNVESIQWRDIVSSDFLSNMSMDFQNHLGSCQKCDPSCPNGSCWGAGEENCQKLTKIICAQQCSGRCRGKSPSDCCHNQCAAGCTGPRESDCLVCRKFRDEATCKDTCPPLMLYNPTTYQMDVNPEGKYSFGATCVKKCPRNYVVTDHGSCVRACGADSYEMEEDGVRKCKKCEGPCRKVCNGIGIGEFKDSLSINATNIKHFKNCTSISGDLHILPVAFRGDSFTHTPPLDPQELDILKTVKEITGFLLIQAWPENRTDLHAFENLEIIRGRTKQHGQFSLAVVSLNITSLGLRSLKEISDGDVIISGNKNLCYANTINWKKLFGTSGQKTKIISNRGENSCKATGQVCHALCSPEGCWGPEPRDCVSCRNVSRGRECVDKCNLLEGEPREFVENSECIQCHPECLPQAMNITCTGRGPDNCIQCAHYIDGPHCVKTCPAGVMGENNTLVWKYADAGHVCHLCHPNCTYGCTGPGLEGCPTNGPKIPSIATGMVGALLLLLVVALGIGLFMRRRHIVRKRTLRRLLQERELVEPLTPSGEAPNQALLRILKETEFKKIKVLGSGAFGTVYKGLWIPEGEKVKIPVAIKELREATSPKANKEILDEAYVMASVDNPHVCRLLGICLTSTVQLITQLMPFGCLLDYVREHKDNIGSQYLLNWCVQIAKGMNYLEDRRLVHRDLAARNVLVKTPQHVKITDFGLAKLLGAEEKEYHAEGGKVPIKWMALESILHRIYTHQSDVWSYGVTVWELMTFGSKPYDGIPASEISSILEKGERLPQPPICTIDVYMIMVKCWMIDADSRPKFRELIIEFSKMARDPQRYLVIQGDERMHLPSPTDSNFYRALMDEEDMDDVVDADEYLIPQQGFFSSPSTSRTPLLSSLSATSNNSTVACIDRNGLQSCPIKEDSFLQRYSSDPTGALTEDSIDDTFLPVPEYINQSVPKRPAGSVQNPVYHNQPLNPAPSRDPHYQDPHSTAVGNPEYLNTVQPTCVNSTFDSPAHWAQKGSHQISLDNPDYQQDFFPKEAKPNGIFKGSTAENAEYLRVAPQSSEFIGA
T2 sequence (Q60751 31-1373): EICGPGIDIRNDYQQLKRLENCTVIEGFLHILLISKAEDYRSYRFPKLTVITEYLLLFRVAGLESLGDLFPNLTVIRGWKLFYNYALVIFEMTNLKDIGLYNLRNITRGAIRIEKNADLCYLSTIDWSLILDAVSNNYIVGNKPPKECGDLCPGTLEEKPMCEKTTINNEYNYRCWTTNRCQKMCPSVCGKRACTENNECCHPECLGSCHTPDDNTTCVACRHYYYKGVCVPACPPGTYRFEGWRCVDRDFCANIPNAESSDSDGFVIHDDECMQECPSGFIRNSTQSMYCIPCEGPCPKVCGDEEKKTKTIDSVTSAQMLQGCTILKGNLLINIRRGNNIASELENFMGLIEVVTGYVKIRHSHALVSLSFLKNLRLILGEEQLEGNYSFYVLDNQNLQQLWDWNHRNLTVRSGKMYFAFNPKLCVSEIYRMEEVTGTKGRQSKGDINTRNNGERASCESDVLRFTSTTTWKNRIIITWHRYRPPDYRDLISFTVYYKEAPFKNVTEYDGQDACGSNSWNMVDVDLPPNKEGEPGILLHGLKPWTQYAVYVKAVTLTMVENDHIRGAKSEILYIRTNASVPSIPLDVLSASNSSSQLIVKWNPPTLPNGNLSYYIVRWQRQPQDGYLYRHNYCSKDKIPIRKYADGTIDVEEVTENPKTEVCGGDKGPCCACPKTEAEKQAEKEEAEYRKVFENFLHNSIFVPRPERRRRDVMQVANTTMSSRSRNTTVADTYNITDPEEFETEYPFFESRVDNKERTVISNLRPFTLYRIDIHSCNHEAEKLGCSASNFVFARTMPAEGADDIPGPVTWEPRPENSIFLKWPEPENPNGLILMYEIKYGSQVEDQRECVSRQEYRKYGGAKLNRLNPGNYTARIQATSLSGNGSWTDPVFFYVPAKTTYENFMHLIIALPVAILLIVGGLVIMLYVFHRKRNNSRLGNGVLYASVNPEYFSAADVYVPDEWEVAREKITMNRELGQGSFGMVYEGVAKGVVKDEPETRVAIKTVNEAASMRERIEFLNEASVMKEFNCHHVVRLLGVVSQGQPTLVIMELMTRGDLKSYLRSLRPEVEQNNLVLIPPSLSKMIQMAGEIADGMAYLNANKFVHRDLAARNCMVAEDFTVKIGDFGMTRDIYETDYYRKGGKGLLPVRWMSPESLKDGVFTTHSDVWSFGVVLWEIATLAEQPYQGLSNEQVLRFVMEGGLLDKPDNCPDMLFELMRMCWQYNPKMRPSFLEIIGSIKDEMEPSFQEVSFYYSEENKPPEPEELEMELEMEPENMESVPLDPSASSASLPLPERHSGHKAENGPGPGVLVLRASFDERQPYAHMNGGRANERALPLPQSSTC

CC(Cc1ccc(O)c(O)c1)C(C)Cc1ccc(O)c(O)c1 (stereo not drawn) [NDGA, nordihydroguaiaretic acid]
concentration at which activation of the IGF-1R kinase domain was inhibited [1]: 1 µM
tumor growth (MCNeuA tumor cells): significantly reduced
IGF-1R autophosphorylation in tumors (IGF-1R [2]): reduced
proliferation in serum-free media with 10 nM IGF-I ([3]; SH-SY5Y and Kelly cells, up to 72 h): inhibited proliferation
proliferation in medium containing 10% serum ([3]; SH-SY5Y and SHEP cells, up to 72 h): inhibited the proliferation
dose that completely blocks neuroblastoma growth in vitro ([3]; serum and serum-free conditions, several days): 15 to 30 µM
caspase-3 activation (caspase-3): dose-dependent caspase-3 activation
IC50 (MCF-7/HER2-18 cells; Homo sapiens, 144 h): 12.5 µM
IC50 (MCF-7/HER2-18 cells): 10 to 20 µM
toxicity [4]: minimal toxicity
EGF receptor phosphorylation (EGF receptor): no affect
IGF-1 stimulated phosphorylation of the IGF-1R (IGF-1R [5]): strongly inhibited
